Test results as given in ChEMBL document CHEMBL1151299, “Flavonoids with anti-cataract activity from Brickellia arguta” (J Nat Prod, 1984).

Key:
[1] = target: Aldo-keto reductase family 1 member B1 (Rattus norvegicus) (UniProt P07943); experiment: Inhibition of rat lens aldose reductase at 1 uM
[2] = target: Aldo-keto reductase family 1 member B1 (Rattus norvegicus) (UniProt P07943); experiment: Inhibition of rat lens aldose reductase at 0.1 uM
[3] = target: Aldo-keto reductase family 1 member B1 (Rattus norvegicus) (UniProt P07943); experiment: Inhibition of rat lens aldose reductase at 10 uM

| inhibition [1] [%] | inhibition [2] [%] | inhibition [3] [%] | SMILES |
| --- | --- | --- | --- |
| 38 | 84 | 7 | COc1c(O)cc2oc(-c3ccc(O)c(O)c3)c(O[C@@H]3O[C@H](CO)[C@H](O)[C@H](O)[C@H]3O)c(=O)c2c1O |
| 32 | 63 | 9 | COc1c(O)cc2oc(-c3ccc(O)cc3)c(O[C@@H]3O[C@H](CO[C@@H]4O[C@@H](C)[C@H](O)[C@@H](O)[C@H]4O)[C@H](O)[C@H](O)[C@H]3O)c(=O)c2c1O |
| 33 | 86 | 11 | COc1c(O)cc2oc(-c3ccc(O)c(O)c3)c(O[C@@H]3O[C@H](CO[C@@H]4O[C@@H](C)[C@H](O)[C@@H](O)[C@H]4O)[C@H](O)[C@H](O)[C@H]3O)c(=O)c2c1O |
| 40 | – | 0 | O=C(O)CN1C(=O)c2cccc3cccc(c23)C1=O |
